Source: BindingDB's records for doi:10.1016/j.bmcl.2014.08.026 (Rhône-Poulenc Rorer, 2014)

Experiment: Antagonist activity at CRTH2 receptor in human whole blood assessed as inhibition of PGD2-induced eosinophil shape change after 10 mins by fluorescence assay

`Cc1c(Cc2ccccc2S(=O)(=O)c2ccccc2)c2c(n1CC(=O)O)CCNC2=O` showed an IC50 of 8 nM.
